In assay [1] the target is T1, human GRIN1 (variant NR1-3) and GRIN2D expressed in HEK293 cells (Homo sapiens, UniProt O15399).
T1 construct: GenScript (GRIN2D synthesis) SC115601; host or cells: HEK293
As to the kind of experiment: GluN2D PAM CIQ fluorescence assay (Fluo-8 calcium, FDSS 6000). The following applies: relative to CIQ (100 uM) = 100%, read-out: NR2D Percent CIQ Avg Max Measured Effect. The class given is cell-based. As to the method: GluN2D PAM CIO Flourescence AssayHEK293 cells were transfected to express human GRIN1 (variant NR1-3, Origene, SKU #: SC115601, Rockville, Md.) and GRIN2D (NCBI locus NM_000836, sequence optimized and synthesized by GenScript) and grown as an adherent monolayer at 37° C., 5% CO2 in DMEM/Ham's F12+10% FBS (Hyclone SH3007.03T in the presence of 2.5 mM ARL-15896 (AdooQ Bioscience, Irvine Calif.). To prepare the cells for an experiment, they were rinsed with Dulbecco's PBS (Ca^2+ and Mg^2+ free) and detached from the flask with TrypLE™ Express (Life Technologies, Carlsbad, Calif.) using the manufacturer's recommended methods. Cells collected from the flask were washed twice in Ca^2+/Mg^2+-free Hanks Balanced Salt Solution+20 mM HEPES (HBSS), and counted and assessed for viability with trypan blue. Washed cells were then dye-loaded by resuspending in Fluo-8/AM calcium sensitive dye plus Component B (AAT Bioquest, Sunnyvale, Calif.) diluted in HBSS. To allow cells to take up fluo-8 dye, they were incubated in the dark for 15 min at 37° C., followed by 30 min at 22-25° C. After dye-loading, cells were washed and resuspended in HBSS and plated in 384-well plates (Falcon 353962; Corning, Big Flats, N.Y.) at 20,000-30,000 cells/well in a final volume of 25 μl/well. The cell plates were centrifuged at 200×g, for 2 minutes at 21° C., to create a monolayer of cells at the bottom of the wells.
To initiate an assay, 10 μl of test compound or buffer was added to each well of the cell plate and pre-incubated for 10 minutes in the dark. After 10 minutes, the cell plate was placed in a FDSS 6000 plate reader (Hamamatsu Photonics, Middlesex, N.J.); baseline fluorescence readings were collected for 20 seconds. Next, 25 μl of agonist solution (3 μM glutamate, 3 μM glycine, and 1 mM Ca^2+ in HBSS) was added and the change in fluorescence was recorded for 3 minutes.
Results were calculated by comparing the effects of test compounds to that of the literature standard GluN2C/D PAM CIQ (100 uM). The increase in fluorescence in the presence of CIQ minus the increase induced by glutamate+glycine alone was set to 100%. Responses induced by compounds that were larger than gain the presence of the standard concentration of CIQ were greater than 100% and lesser responses were less than 100%.

The target in assay [2] is T2, human GRIN1 (transcript variant NR1-3) and GRIN2D expressed in Xenopus oocytes (Homo sapiens, UniProt O15399).
T2 construct: GenScript (GRIN2D synthesis) SC115601; host or cells: Xenopus oocytes injected with cRNA (1 GluN1 : 2 GluN2)
The experiment in a line: NR2D oocyte potentiation assay (two-electrode voltage clamp). The class given is cell-based. The following applies: 10 uM test compound; glutamate and glycine 10 μM each; holding potential −40 mV. The essentials: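 Xenopus oocytes were defolliculated with collagenase, then injected with 50 nL of cRNA encoding human GluN1 (NR1-3 variant) and GluN2D mixed 1:2 and kept 72 h at 16° C. Two-electrode voltage clamp at −40 mV recorded currents; after 10 μM glutamate plus 10 μM glycine reached plateau, test compound was added until a new plateau formed.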
(In general: Two-electrode voltage clamp is typically applied to oocytes expressing channels or transporters.)

SMILES strings stand for the structures. A value given as a limit tells only on which side of the number the result lay.

T1 sequence (O15399 28-1336, other chains not shown): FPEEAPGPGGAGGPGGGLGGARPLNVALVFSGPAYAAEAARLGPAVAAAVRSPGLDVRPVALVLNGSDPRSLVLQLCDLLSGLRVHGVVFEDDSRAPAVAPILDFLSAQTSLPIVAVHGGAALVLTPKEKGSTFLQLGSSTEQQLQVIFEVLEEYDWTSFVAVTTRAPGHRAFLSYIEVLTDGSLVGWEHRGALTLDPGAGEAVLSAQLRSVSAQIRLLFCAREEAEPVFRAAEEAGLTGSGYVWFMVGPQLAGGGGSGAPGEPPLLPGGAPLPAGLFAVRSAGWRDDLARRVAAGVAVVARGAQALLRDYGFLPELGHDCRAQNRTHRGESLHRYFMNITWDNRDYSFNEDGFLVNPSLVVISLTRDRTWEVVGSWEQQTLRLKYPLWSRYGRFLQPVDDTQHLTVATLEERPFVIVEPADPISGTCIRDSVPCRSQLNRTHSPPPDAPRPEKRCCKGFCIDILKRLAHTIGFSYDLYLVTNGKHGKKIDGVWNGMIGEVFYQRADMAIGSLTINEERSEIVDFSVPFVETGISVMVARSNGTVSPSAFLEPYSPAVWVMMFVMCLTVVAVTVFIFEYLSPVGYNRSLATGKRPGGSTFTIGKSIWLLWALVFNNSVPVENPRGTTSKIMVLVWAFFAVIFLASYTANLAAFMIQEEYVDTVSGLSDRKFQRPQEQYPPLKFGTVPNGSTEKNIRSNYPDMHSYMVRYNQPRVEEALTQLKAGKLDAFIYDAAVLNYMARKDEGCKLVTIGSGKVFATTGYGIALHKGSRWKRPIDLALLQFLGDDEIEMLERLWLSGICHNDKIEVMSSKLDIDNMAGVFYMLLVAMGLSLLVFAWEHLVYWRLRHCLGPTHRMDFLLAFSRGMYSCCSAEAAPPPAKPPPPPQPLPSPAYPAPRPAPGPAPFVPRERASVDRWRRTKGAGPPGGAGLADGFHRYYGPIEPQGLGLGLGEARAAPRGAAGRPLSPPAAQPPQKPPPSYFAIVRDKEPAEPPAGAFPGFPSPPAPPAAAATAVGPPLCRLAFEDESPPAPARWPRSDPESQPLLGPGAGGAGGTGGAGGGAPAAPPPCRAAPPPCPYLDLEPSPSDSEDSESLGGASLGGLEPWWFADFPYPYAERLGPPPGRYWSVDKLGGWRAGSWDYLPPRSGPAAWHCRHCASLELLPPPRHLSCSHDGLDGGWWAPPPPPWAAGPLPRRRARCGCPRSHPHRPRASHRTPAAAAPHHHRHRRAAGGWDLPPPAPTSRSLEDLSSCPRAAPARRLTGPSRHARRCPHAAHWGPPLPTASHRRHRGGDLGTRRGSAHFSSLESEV
T2 sequence (O15399 28-1336, other chains not shown): as above

On to `Cc1ccc(-c2ccc(-c3nc4n(c(=O)c3C#N)CCCS4)c(F)c2)cc1` [Example 197, 8-[2-fluoro-4-(4-methylphenyl)phenyl]-6-oxo-2H,3H,4H,6H-pyrimido[2,1-b][1,3]thiazine-7-carbonitrile], for which the Emax in assay [1] was in the range of 10 to 50%. Besides, the activation at 10 µM in assay [2] lay within 10 to 100%.

As for `CC(C)c1ccc(-c2ccc(-c3nc4n(c(=O)c3C#N)CCCS4)c(F)c2)cc1` [Example 198, 8-{2-fluoro-4[4-(propan-2-yl)phenyl]phenyl}-6-oxo-2H,3H,4H,6H-pyrimido[2,1-b][1,3]thiazine-7-carbonitrile], the Emax in assay [1] was in the range of 10 to 50%. Also, in assay [2], the activation at 10 µM is 10 to 100%.

`CC1CSc2nc(-c3ccc(C(C)(C)C)cc3)c(C#N)c(=O)n2C1` (stereo not shown) [Example 199, 8-(4-tert-butylphenyl)-3,4-dihydro-3-methyl-6-oxo-2H,6H-pyrimido[2,1-b][1,3]thiazine-7-carbonitrile]: the Emax in assay [1] lay in the range of 100 to 200%. In assay [2], the activation at 10 µM was more than 1000%.

Consider `CC(C)(C)c1ccc(-c2nc3n(c(=O)c2C#N)CC(O)CS3)cc1` (stereo not shown) [Example 200, 8-(4-tert-butylphenyl)-3,4-dihydro-3-hydroxy-6-oxo-2H,6H-pyrimido[2,1-b][1,3]thiazine-7-carbonitrile], for which the Emax in assay [1] was in the range of 50 to 100%. Moreover, in assay [2], the activation at 10 µM was less than 10%.

`CC1CCSc2nc(-c3ccc(C(C)(C)C)cc3)c(C#N)c(=O)n21` (stereo not shown) [Example 201, 8-(4-tert-butylphenyl)-3,4-dihydro-4-methyl-6-oxo-2H,6H-pyrimido[2,1-b][1,3]thiazine-7-carbonitrile]: the Emax in assay [1] lay in the range of 100 to 200%. For the same compound, in assay [2], the activation at 10 µM lay in the range of 10 to 100%.

For `CC(C)(C)c1ccc(-c2nc3n(c(=O)c2C#N)C(c2ccccc2)CCS3)cc1` (stereo not shown) [Example 202, 8-(4-tert-butylphenyl)-3,4-dihydro-4-phenyl-6-oxo-2H,6H-pyrimido[2,1-b][1,3]thiazine-7-carbonitrile], the Emax in assay [1] was in the range of 10 to 50%. The “NR2D Oocyte % Potentiation @ 10 uM” value in assay [2] is “Inhibitor”.

As for `CC(C)(C)c1ccc(-c2nc3n(c(=O)c2C#N)CC2(COC2)CS3)cc1` [Example 204, 8′-(4-tert-butylphenyl)-6′-oxo-4′,6′-dihydro-2′H-spiro[oxetane-3,3′-pyrimido[2,1-b][1,3]thiazine]-7′-carbonitrile], in assay [1], the Emax fell in the range of 10 to 50%. Further, the activation at 10 µM in assay [2] lay within 10 to 100%.

For `CC(C)(C)c1ccc(-c2nc3n(c(=O)c2C#N)CCS3)cc1` [Example 205, 7-(4-tert-butylphenyl)-5-oxo-2H,3H,5H-[1,3]thiazolo[3,2-a]pyrimidine-6-carbonitrile], in assay [1], the Emax lay within 100 to 200%. Further, in assay [2], the activation at 10 µM was in the range of 100 to 500%.

Take `CC(C)c1ccc(-c2nc3n(c(=O)c2C#N)CCS3)cc1` [Example 206, 5-oxo-7-[4-(propan-2-yl)phenyl]-2H,3H,5H-[1,3]thiazolo[3,2-a]pyrimidine-6-carbonitrile]: in assay [1], the Emax was in the range of 50 to 100%. In assay [2], the activation at 10 µM lay in the range of 10 to 100%.

With `COc1ccc(-c2nc3n(c(=O)c2C#N)CCS3)c(OC)c1` [Example 208, 7-(2,4-dimethoxyphenyl)-5-oxo-2H,3H,5H-[1,3]thiazolo[3,2-a]pyrimidine-6-carbonitrile], in assay [1], the Emax was in the range of 50 to 100%. Besides, the “NR2D Oocyte % Potentiation @ 10 uM” value in assay [2] was “Inhibitor”.

Take `N#Cc1c(-c2ccc(Cl)cc2)nc2n(c1=O)CCS2` [Example 209, 7-(4-chlorophenyl)-5-oxo-2H,3H,5H-[1,3]thiazolo[3,2-a]pyrimidine-6-carbonitrile]: in assay [1], the Emax is 10 to 50%. The “NR2D Oocyte % Potentiation @ 10 uM” value in assay [2] is on record as “Inhibitor”.

Values taken from US11807650B2, “NMDA receptor modulators and uses thereof” (Novartis AG, priority 2016, dated 2023).
